Experimental data reported in patent publication US20260053811A1, “METHODS OF TREATING HYPERTENSION IN OBESE SUBJECTS” (Mineralys Therapeutics, Inc., priority 2022, published 2026).

System: hypertensive subjects
Assay: Adverse events (TEAEs, SAEs, AESI, study drug discontinuation, dose modification);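 also: counts of spontaneously reported adverse events in the Safety Analysis Set, subjects grouped by treatment actually received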
Format: in vivo, human
Settings: Part 1
Source text: In analyses performed on the Safety Analysis Set, subjects will be analyzed according to their actual treatment received.

CC(=O)N[C@H]1CC[C@H](NC(=O)CN2CCN(c3nncc(-c4ccc(C)cc4)n3)CC2)CC1 [Compound A HBr]
8 (26.7) n (%): On-treatment TEAE: Hyperkalaemia (100 mg QD (N = 30)) | On-treatment TEAE: Hyperkalaemia, Mild (100 mg QD (N = 30)) | On-treatment TEAE: Investigations (100 mg QD (N = 30)) | On-treatment TEAE: Metabolism and nutrition disorders (100 mg QD (N = 30)) | On-treatment TEAE: Metabolism and nutrition disorders, Mild (100 mg QD (N = 30))
6 (20.0) n (%): On-treatment TEAE: Investigations, Mild (100 mg QD (N = 30))
1 (3.3) n (%): On-treatment TEAE: Urinary tract infection (100 mg QD (N = 30)) | On-treatment TEAE: Vascular disorders (100 mg QD (N = 30)) | On-treatment TEAE: Vascular disorders, Moderate (100 mg QD (N = 30)) | TEAE leading to permanent discontinuation from study drug: Activated partial thromboplastin time prolonged (100 mg QD (N = 30)) | TEAE leading to permanent discontinuation from study drug: Hypotension (100 mg QD (N = 30)) | TEAE leading to permanent discontinuation from study drug: Investigations (100 mg QD (N = 30))
3 (10.0) n (%): On-treatment TEAE: Blood creatinine increased (100 mg QD (N = 30)) | On-treatment TEAE: Blood creatinine increased, Mild (100 mg QD (N = 30))
7 (23.3) n (%): On-treatment TEAE: any, Moderate (100 mg QD (N = 30))
9 (30.0) n (%): On-treatment TEAE: any, Mild (100 mg QD (N = 30))
3 (10.7) n (%): On-treatment TEAE: Hyperkalaemia (50 mg QD (N = 28)) | On-treatment TEAE: Hyperkalaemia, Mild (50 mg QD (N = 28))
1 (3.6) n (%): On-treatment TEAE: General disorders and administration site conditions, Mild (50 mg QD (N = 28)) | On-treatment TEAE: Headache (50 mg QD (N = 28)) | On-treatment TEAE: Headache, Mild (50 mg QD (N = 28)) | On-treatment TEAE: Investigations (50 mg QD (N = 28)) | On-treatment TEAE: Investigations, Mild (50 mg QD (N = 28)) | On-treatment TEAE: Nervous system disorders, Mild (50 mg QD (N = 28)) | On-treatment TEAE: Urinary tract infection, Mild (50 mg QD (N = 28))
2 (7.1) n (%): On-treatment TEAE: General disorders and administration site conditions (50 mg QD (N = 28)) | On-treatment TEAE: Hypertension (50 mg QD (N = 28)) | On-treatment TEAE: Hypertension, Moderate (50 mg QD (N = 28)) | On-treatment TEAE: Infections and infestations (50 mg QD (N = 28)) | On-treatment TEAE: Infections and infestations, Moderate (50 mg QD (N = 28)) | On-treatment TEAE: Nervous system disorders (50 mg QD (N = 28)) | On-treatment TEAE: Urinary tract infection (50 mg QD (N = 28)) | On-treatment TEAE: Vascular disorders (50 mg QD (N = 28)) | On-treatment TEAE: Vascular disorders, Moderate (50 mg QD (N = 28))
2 (6.7) n (%): On-treatment TEAE: Gastrointestinal disorders (100 mg QD (N = 30)) | On-treatment TEAE: Gastrointestinal disorders, Mild (100 mg QD (N = 30)) | On-treatment TEAE: Infections and infestations (100 mg QD (N = 30)) | On-treatment TEAE: Infections and infestations, Moderate (100 mg QD (N = 30)) | On-treatment TEAE: Investigations, Moderate (100 mg QD (N = 30)) | On-treatment TEAE: Psychiatric disorders (100 mg QD (N = 30)) | On-treatment TEAE: Psychiatric disorders, Moderate (100 mg QD (N = 30)) | TEAE leading to permanent discontinuation from study drug: Hyperkalaemia (100 mg QD (N = 30)) | TEAE leading to permanent discontinuation from study drug: Metabolism and nutrition disorders (100 mg QD (N = 30))
5 (16.7) n (%): On-treatment TEAE: Glomerular filtration rate decreased (100 mg QD (N = 30))
6 (21.4) n (%): On-treatment TEAE: any, Moderate (50 mg QD (N = 28))
4 (13.3) n (%): Subjects with any On-treatment TEAEs leading to withdrawal from study drug (100 mg QD (N = 30))
4 (14.3) n (%): On-treatment TEAE: any, Mild (50 mg QD (N = 28))
5 (17.9) n (%): On-treatment TEAE: Metabolism and nutrition disorders (50 mg QD (N = 28)) | On-treatment TEAE: Metabolism and nutrition disorders, Mild (50 mg QD (N = 28))
0 n (%): On-treatment TEAE: Glomerular filtration rate decreased (50 mg QD (N = 28)) | On-treatment TEAE: Hyperkalaemia, Moderate (50 mg QD (N = 28)) | On-treatment TEAE: Hyperkalaemia, Severe (50 mg QD (N = 28)) | On-treatment TEAE: Infections and infestations, Mild (50 mg QD (N = 28)) | On-treatment TEAE: Investigations, Moderate (50 mg QD (N = 28)) | On-treatment TEAE: Metabolism and nutrition disorders, Moderate (50 mg QD (N = 28)) | On-treatment TEAE: Orthostatic hypotension (50 mg QD (N = 28)) | On-treatment TEAE: Orthostatic hypotension, Mild (50 mg QD (N = 28)) | On-treatment TEAE: Psychiatric disorders (50 mg QD (N = 28)) | On-treatment TEAE: Psychiatric disorders, Moderate (50 mg QD (N = 28)) | On-treatment TEAE: Vascular disorders, Mild (50 mg QD (N = 28)) | On-treatment TEAE: any, Severe (50 mg QD (N = 28)) | Subjects with any On-treatment TEAEs leading to withdrawal from study drug (50 mg QD (N = 28)) | TEAE leading to permanent discontinuation from study drug: Activated partial thromboplastin time prolonged (50 mg QD (N = 28)) | TEAE leading to permanent discontinuation from study drug: Cardiac disorders (50 mg QD (N = 28)) | TEAE leading to permanent discontinuation from study drug: Coronary artery disease (50 mg QD (N = 28)) | TEAE leading to permanent discontinuation from study drug: Dizziness (50 mg QD (N = 28)) | TEAE leading to permanent discontinuation from study drug: Hyperkalaemia (50 mg QD (N = 28)) | TEAE leading to permanent discontinuation from study drug: Hypertension (50 mg QD (N = 28)) | TEAE leading to permanent discontinuation from study drug: Hypotension (50 mg QD (N = 28)) | TEAE leading to permanent discontinuation from study drug: Investigations (50 mg QD (N = 28)) | TEAE leading to permanent discontinuation from study drug: Metabolism and nutrition disorders (50 mg QD (N = 28)) | TEAE leading to permanent discontinuation from study drug: Nervous system disorders (50 mg QD (N = 28)) | TEAE leading to permanent discontinuation from study drug: Orthostatic hypotension (50 mg QD (N = 28)) | TEAE leading to permanent discontinuation from study drug: Vascular disorders (50 mg QD (N = 28)) | On-treatment TEAE: Blood and lymphatic system disorders (100 mg QD (N = 30)) | On-treatment TEAE: Blood and lymphatic system disorders, Mild (100 mg QD (N = 30)) | On-treatment TEAE: Cardiac disorders (100 mg QD (N = 30)) | On-treatment TEAE: Cortisol decreased (100 mg QD (N = 30)) | On-treatment TEAE: Cortisol decreased, Mild (100 mg QD (N = 30)) | On-treatment TEAE: Dizziness (100 mg QD (N = 30)) | On-treatment TEAE: General disorders and administration site conditions (100 mg QD (N = 30)) | On-treatment TEAE: General disorders and administration site conditions, Mild (100 mg QD (N = 30)) | On-treatment TEAE: Headache (100 mg QD (N = 30)) | On-treatment TEAE: Headache, Mild (100 mg QD (N = 30)) | On-treatment TEAE: Hyperkalaemia, Moderate (100 mg QD (N = 30)) | On-treatment TEAE: Hyperkalaemia, Severe (100 mg QD (N = 30)) | On-treatment TEAE: Hypertension (100 mg QD (N = 30)) | On-treatment TEAE: Hypertension, Moderate (100 mg QD (N = 30)) | On-treatment TEAE: Infections and infestations, Mild (100 mg QD (N = 30)) | On-treatment TEAE: Metabolism and nutrition disorders, Moderate (100 mg QD (N = 30)) | On-treatment TEAE: Nervous system disorders (100 mg QD (N = 30)) | On-treatment TEAE: Nervous system disorders, Mild (100 mg QD (N = 30)) | On-treatment TEAE: Orthostatic hypotension (100 mg QD (N = 30)) | On-treatment TEAE: Orthostatic hypotension, Mild (100 mg QD (N = 30)) | On-treatment TEAE: Urinary tract infection, Mild (100 mg QD (N = 30)) | On-treatment TEAE: Vascular disorders, Mild (100 mg QD (N = 30)) | On-treatment TEAE: any, Severe (100 mg QD (N = 30)) | TEAE leading to permanent discontinuation from study drug: Cardiac disorders (100 mg QD (N = 30)) | TEAE leading to permanent discontinuation from study drug: Coronary artery disease (100 mg QD (N = 30)) | TEAE leading to permanent discontinuation from study drug: Dizziness (100 mg QD (N = 30)) | TEAE leading to permanent discontinuation from study drug: Hypertension (100 mg QD (N = 30)) | TEAE leading to permanent discontinuation from study drug: Nervous system disorders (100 mg QD (N = 30))
